Laboratory results: US20260167659A1, “STING AGONISTS” (LIGACHEM BIOSCIENCES INC., priority 2022, published 2026)

Key:
[1] = target: T1, hSTING-WT (R232) (Homo sapiens, UniProt Q86WV6, H232R); assay: STING activation, THP1-Dual IRF3 reporter assay, hSTING-R232 cells; assay type: cell-based; conditions: IRF3 luciferase reporter, 24 hours, read-out: STING activity using hSTING-R232 cells EC50
T1 construct: host or cells: THP1-Dual cells (human monocytes) with knocked-in hSTING R232
Procedure: To assess potency of STING agonist compounds described herein, THP1-Dual™ Cells (NF—KB-SEAP and IRF-Lucia luciferase reporter monocytes, InvivoGen) were used. The reporter cells were knocked-in either of hSTING-WT (R232, #thpd-r232), HAQ variant (#thpd-nfis), or H232 variant (#thpd-h232). All cells were cultured at 37° C. in a humidified incubator at 5% CO2 and maintained in RPMI 1640 medium (Gibco, #22400097) supplemented with 10% heat-inactivated FBS and 1×Pen-Strep (Gibco, #15140122). To measure STING agonist-mediated IRF3 activity, the cells (9.0×10^4 cells per well) were seeded in a flat-bottomed 96-well plate. The next day, the cells were treated with compounds in a serial dilution for 24 hours. Subsequently, 20 μL of the cell culture supernatant and 50 μL of the QUANTI-Luc™ reagent (InvivoGen, #rep-qlc) were mixed in a 96-well white plate and then, luciferase activity was measured using an EnVision Xcite multilabel reader. The data were analyzed using Prism8 software (4-parameter).
The potency of STING agonist compounds was evaluated by the activation of Type I Interferon pathway using THP-1 IRF3 reporter assay.

[2] = test system: human peripheral blood mononuclear cells (PBMCs); assay: Cytokine production induction in PBMCs (ELISA); assay type: cell-based; conditions: 1 μM, 24 hours; for human CXCL-10 production: FIG. 1A; for human IFNα production: FIG. 1B
Procedure: The cells (2.0×10^4 cells per well) were seeded in a flat-bottomed 96-well plate. PBMCs were stimulated with STING agonist compounds described herein (Compound 214, 221, and 230) at 1 μM for 24 hours. BxPC-3 and MDA-MB-468 tumor cells were treated with STING agonist compounds described herein (Compound 313) in a 5-fold serial dilution from […] for 24 hours, respectively. The levels of cytokines in the culture supernatants were measured using the ELISA kit (R&D systems, #DY266, #DY9345-05) according to the manufacture's instruction.
Briefly, each well of a 96-well plate was coated with 100 μL of the diluted capture antibody in PBS and incubated overnight at room temperature (RT). Next day, each well was washed with wash buffer (0.05% Tween 20 in PBS) three times using an auto-washer. The plates were blocked with 300 μL of Reagent Diluent (1% BSA in PBS) for 1 hour at RT. The aspiration/wash step was repeated. 100 μL of diluted samples or standards in Reagent Diluent was added to each well and incubated for 2 hours at RT. After wash, 100 μL of the Detection Antibody pre-diluted in Reagent Diluent was added into each well and incubated for 2 hours at RT. After wash, 100 μL of the working diluted […] in Reagent Diluent was added and incubated under subdued light conditions for 20 minutes, followed by repeated aspiration/wash. 100 μL of substrate solution (mixed H2O2 and Tetramethylbenzidine in a 1:1 ratio) was added and incubated for 20 minutes at RT in avoiding direct light exposure. The reaction was stopped by adding 50 μL of stop solution (2N H2SO4). The optical density was determined using a microplate reader (Molecular Devices VersaMax Microplate Reader). The optical density (O.D.) of each well was normalized by subtracting the reading at 570 nm from the reading at 450 nm.

[3] = Plasma pharmacokinetics in naive Balb/C mouse, LC-MS/MS; assay type: in vivo; conditions: 1.5 mg/kg single IV; for AUC∞, norm / Cmax, norm: n = 3, dose-normalised; for AUC(0-inf) / AUC(0-t) / C0 / Cmax / clearance / half-life / Vd: female; for AUC(0-inf) / AUC(0-t) / C0 / Cmax: n = 3, plasma; for clearance / half-life / Vd: plasma; for clearance / half-life: n = 3; for Vd: n = 3, read-out: VSS
Procedure: For in vivo evaluation of STING agonist compounds described herein in naïve Balb/C mouse, single doses of STING agonist compounds were given at 1.5 mg/kg intravenously into female BALB/c mice (Orientbio, South Korea) at 6-8 weeks of age. Pharmacokinetics were studied following injection of the STING agonist compounds into Balb/C mice. Plasma samples were taken at various time points and stored frozen for analysis. The plasma concentrations of the STING agonist compounds at the indicated time points were measured using a LC-MS/MS analysis method.
Briefly, 250 μL of acetonitrile (ACN) solution was added in both 50 μL of sample and 50 μL of plasma containing 10 nM Dextromethorphan (internal standard), and the solutions were mixed vigorously using a vortex mixer for 5 minutes. The samples were then spun down at 14,000 rpm, 4° C. for 5 minutes. 100 μL of supernatants were combined with 100 μL of mobile phase A (0.1% formic acid in water with 5% ACN) and mixed thoroughly. The samples were measured for the STING agonist compounds using a LC-MS/MS (Nexera LC40 (SHIMADZU) and QTRAP4500 (SCIEX)).

[4] = test system: human PBMCs (CD8+ T cells and NK cells); assay: CD8+ T and NK cell activation in PBMCs by flow cytometry; assay type: cell-based; conditions: for expansion of activated CD8+ T cells / expansion of activated NK cells: 3 μM, 24 hours; for expansion of activated CD8+ T cells: FIG. 5A; for expansion of activated NK cells: FIG. 5B
Procedure: To test the effect of STING agonist compounds described herein in the activation of innate and adaptive immune cells, flow cytometry (FACS) was performed. Human THP-1 cells (Korean Cell Line Bank, #40202) and PBMCs were seeded at 1.2×10^5 cells per well in a round-bottomed 96-well plate in RPMI 1640 medium (Gibco, #22400097) supplemented with 10% heat-inactivated FBS and 1× Antibiotic-Antimycotic (Gibco, #15240062) and rested for 24 hours at 37° C. The cells were stimulated with the STING agonist compounds as described; For THP-1 stimulation, the cells were treated with the STING agonist compound (Compound 313) in a 5-fold serial dilution from 1 μM for 48 hours. The induction of cell surface activation markers, CD86 (co-stimulatory molecule) and HLA-DR (MHC-class II), was measured by flow cytometry. […] For flow cytometry analysis, the stimulated cells were centrifuged at 300 g for 5 minutes at 4° C., and then resuspended in FACS buffer (2% FBS, 2 mM EDTA in PBS). After staining cells with human Fc blocker (BD Biosciences, #564220) in FACS buffer for 10 minutes at 4° C. Subsequently, the cells were stained with fluorescence-conjugated antibodies against CD8, CD3, CD56, and CD69 for CD8 T and NK cells activation and against CD86 and MHC-II for THP-1 naïve cells activation for 40 minutes at 4° C. After washing three times with FACS buffer, the cells were resuspended in FACS buffer and analyzed by FACSlyric (BD bioscience). The data were analyzed with Flowjo 9.0 software (BD bioscience).
After treating human PBMCs with the STING agonist compounds, it was analyzed the activation of CD8^+ T cells and NK cells by measuring CD69, an activation marker, on their cell surface by flow cytometry.

[5] = target: T2, human STING (Homo sapiens, UniProt Q86WV6, H232R); assay: Direct STING binding, HUMAN STING WT BINDING KIT (Cisbio); conditions: direct binding to human STING WT protein in vitro; read-out: Binding potency EC50
T2 construct: purchased Cisbio 64BDSTGPEG
T2 sequence (Q86WV6 whole entry H232R): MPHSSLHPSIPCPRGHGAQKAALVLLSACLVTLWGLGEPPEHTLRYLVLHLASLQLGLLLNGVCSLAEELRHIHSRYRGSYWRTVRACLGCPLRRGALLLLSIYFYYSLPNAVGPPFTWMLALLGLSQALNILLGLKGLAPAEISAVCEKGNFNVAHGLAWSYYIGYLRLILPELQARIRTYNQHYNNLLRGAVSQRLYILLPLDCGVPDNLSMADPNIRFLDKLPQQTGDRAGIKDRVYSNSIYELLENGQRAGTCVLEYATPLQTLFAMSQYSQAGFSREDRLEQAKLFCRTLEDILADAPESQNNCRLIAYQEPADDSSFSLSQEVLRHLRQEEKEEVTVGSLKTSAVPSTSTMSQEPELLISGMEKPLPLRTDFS
From the text: Additionally, for analysis of direct binding potency of STING agonist compounds described herein to human STING, HUMAN STING WT BINDING KIT (Cisbio, #64BDSTGPEG) was used according to the manufacture's instruction.

[6] = Normal cell cytotoxicity in CD34+ HSC, CellTiter-Glo; assay type: cell-based; conditions: human, CD34+ hematopoietic stem cells (HSCs), read-out: In vitro cell cytotoxicity in CD34+ HSC CC50
Procedure: The CD34^+ hematopoietic stem cells (HSCs) were purchased from […]™ (#70002.3). The cells (2×10^4 cells per well) were cultured in StemSpan™ SFEM II medium supplemented with StemSpan™ CD34+ Expansion Supplement (#02691) in a 6-well plate at 37° C. for 7 days. On day 3 or 4, an equal volume of fresh complete medium was added into the cell culture. On day 7, the cells (4×10^4 cells per well) were seeded in a 96-well white plate and rested for 24 hours in the same condition.
After 72 hours, the cell viability was measured using CellTiter-Glo Luminescent Cell Viability Assay (Promega, #G7573) according to the manufacture's instruction. The signal was detected using an EnVision Xcite multilabel reader and data were analyzed using GraphPad Prism 8 software.

[7] = Normal cell cytotoxicity in PBMCs, CellTiter-Glo; assay type: cell-based; conditions: human, read-out: In vitro cell cytotoxicity in PBMCs CC50
Procedure: PBMCs were also purchased from […]™ (#700025.2). The cells (8.0×10^4 cells per well) were seeded in a flat-bottomed 96-well plate in RPMI 1640 medium (Gibco, #22400097) with 10% heat-inactivated FBS and 1× Antibiotic-Antimycotic (Gibco, #15240062) and rested for 24 hours at 37° C. […] After 72 hours, the cell viability was measured using CellTiter-Glo Luminescent Cell Viability Assay (Promega, #G7573) according to the manufacture's instruction. The signal was detected using an EnVision Xcite multilabel reader and data were analyzed using GraphPad Prism 8 software.
To verify the effect of the STING agonist compounds in normal cell cytotoxicity, the PBMCs were treated with the STING agonist compounds for 3 days and measured the percentage of cell death.

T1 sequence (Q86WV6 whole entry H232R): as above

| Compound | EC50 [1] | AUC∞, norm [3] | Cmax, norm [3] | AUC(0-inf) [3] | AUC(0-t) [3] | C0 [3] | Cmax [3] | clearance [3] | half-life [3] | Vd [3] | EC50 [5] | human CXCL-10 production [2] | human IFNα production [2] | CD69 expression on CD8+ T cells ([4]; 100 nM, 48 hours, FIG. 4A) | CD69 expression on NK cells ([4]; 100 nM, 48 hours, FIG. 4B) | CC50 at 72 h [6] | CC50 at 72 h [7] | expansion of activated CD8+ T cells [4] | expansion of activated NK cells [4] |
| --- | --- | --- | --- | --- | --- | --- | --- | --- | --- | --- | --- | --- | --- | --- | --- | --- | --- | --- | --- |
| CCn1nc(C)cc1C(=O)Nc1nc2cc(C(N)=O)cc(OC)c2n1CC=CCn1c(NC(=O)c2cc(C)nn2CC)nc2cc(C(N)=O)cc(OCCCN3CCN(C(=O)OCc4ccc(OC5OC(C(=O)O)C(O)C(O)C5O)c(C(=O)NCCOC)c4)CC3=O)c21 (centres unmarked) [Compound 221] | 68.3 nM | 4.53 ± 0.15 kg·h/L | 5.37 ± 0.30 kg/L | 6800 ± 230 ng·h/mL | 6670 ± 220 ng·h/mL | 9790 ± 430 ng/mL | 8060 ± 450 ng/mL | 3.67 mL/min/kg | 1.06 ± 0.04 h | 0.26 ± 0.01 L/kg | – | induced cytokine production | induced cytokine production | – | – | – | – | – | – |
| CCn1nc(C)cc1C(=O)Nc1nc2cc(C(N)=O)cc(OC)c2n1C/C=C/Cn1c(NC(=O)c2cc(C)nn2CC)nc2cc(C(N)=O)cc(OC/C=C/Cn3cc(NC(=O)OCc4ccc(O[C@@H]5O[C@H](C(=O)O)[C@@H](O)[C@H](O)[C@H]5O)c(C(=O)NCCOCCOCCO)c4)cn3)c21 [Compound 277] | 27.4 nM | 7.37 ± 0.25 kg·h/L | 4.04 ± 0.24 kg/L | 11100 ± 370 ng·h/mL | 10500 ± 490 ng·h/mL | 6530 ± 320 ng/mL | 6060 ± 360 ng/mL | 2.33 mL/min/kg | 1.38 ± 0.19 h | 0.27 ± 0.03 L/kg | 0.2 nM | – | – | enhanced CD69 expression | enhanced CD69 expression | 13.5 nM | 32.1 nM | – | – |
| CCn1nc(C)cc1C(=O)Nc1nc2cc(C(N)=O)cc(OC/C=C/Cn3cc(NC(=O)OCc4ccc(O[C@@H]5O[C@H](C(=O)O)[C@@H](O)[C@H](O)[C@H]5O)c(C(=O)NCCOCCOCCN5CCOCC5)c4)cn3)c2n1C/C=C/Cn1c(NC(=O)c2cc(C)nn2CC)nc2cc(C(N)=O)cc(OCCCC(=O)O)c21 [Compound 361] | 35.8 nM | – | – | – | – | – | – | – | – | – | 0.1 nM | – | – | – | – | – | – | enhanced expansion | enhanced expansion |

Molecules with a lower EC50 [1], results first:

| EC50 [1] | AUC∞, norm [3] | Cmax, norm [3] | AUC(0-inf) [3] | AUC(0-t) [3] | C0 [3] | Cmax [3] | clearance [3] | half-life [3] | Vd [3] | EC50 [5] | Compound | human CXCL-10 production [2] | human IFNα production [2] | CD69 expression on CD8+ T cells ([4]; 100 nM, 48 hours, FIG. 4A) | CD69 expression on NK cells ([4]; 100 nM, 48 hours, FIG. 4B) | CC50 at 72 h [6] | CC50 at 72 h [7] | expansion of activated CD8+ T cells [4] | expansion of activated NK cells [4] |
| --- | --- | --- | --- | --- | --- | --- | --- | --- | --- | --- | --- | --- | --- | --- | --- | --- | --- | --- | --- |
| 3.96 nM | – | – | – | – | – | – | – | – | – | – | CCn1nc(C)cc1C(=O)Nc1nc2cc(C(N)=O)cc(OC)c2n1C/C=C/Cn1c(NC(=O)c2cc(C)nn2CC)nc2cc(C(N)=O)cc(OCc3cccc(NC(=O)OCc4ccc(O[C@@H]5O[C@H](C(=O)O)[C@@H](O)[C@H](O)[C@H]5O)c(C(=O)NCCOC)c4)c3)c21 [Compound 230] | induced cytokine production | induced cytokine production | – | – | – | – | – | – |
| 11.1 nM | – | – | – | – | – | – | – | – | – | 0.24 nM | CCn1nc(C)cc1C(=O)Nc1nc2cc(C(N)=O)cc(OC)c2n1C/C=C/Cn1c(NC(=O)c2cc(C)nn2CC)nc2cc(C(N)=O)cc(OC/C=C/Cn3cc(NC(=O)OCc4ccc(O[C@@H]5O[C@H](C(=O)O)[C@@H](O)[C@H](O)[C@H]5O)c(C(=O)NCCOCCOCCO[C@@H]5O[C@H](C(=O)O)[C@@H](O)[C@H](O)[C@H]5O)c4)cn3)c21 [Compound 344] | – | – | – | – | – | – | enhanced expansion | enhanced expansion |
